How the values were obtained:
[1] = biological target: T1, rNK1R (Rattus norvegicus, UniProt P14600); experiment: Competitive radioligand binding assay, rat brain homogenates, [3H]-(Sar9,Met(O2)11)-Substance P; conditions: mean of three independent experiments in duplicate unless stated; for IC50: read-out: IC50 (Mean ± SD) rNK1R
T1 construct: As a source of the receptor proteins, homogenates obtained from rat brains; from tissue; host or cells: rat brain homogenate
Protocol: (§1) The binding affinity of the tested compounds for human and rat NK1R was determined in competitive radioligand binding assays following the method previously described. As a source of the receptor proteins, homogenates obtained from rat brains (obtained as described in Ref [30]) or homogenates made from hNK1-CHO cells were used. […] The final reaction volumes were 250 μL and 1 mL, for the human and rat NK1R determinations, respectively. […] The binding reaction mixtures were incubated in a shaking water bath at 25 °C for 60 min. The reaction was terminated by rapid filtration through Whatman GF/B filter (Gaithersburg, MD) presoaked in 0.5% polyethyleneimine and washed three times with 2 mL of cold saline. The filters were placed in 24-well plates and immersed in a Betaplate Scint scintillation solution (Perkin Elmer, Waltham, MA, USA). The filter-bound radioactivity was determined by scintillation counter MicroBeta LS, Trilux (PerkinElmer, Waltham, MA, USA).
(§2) The displacement curves were drawn and the mean IC50 values were determined with standard deviations (GraphPad Prism version 8.0, San Diego, CA, USA). At least three independent experiments (carried out in duplicate) were performed.

[2] = biological target: T2, hNK1R (Homo sapiens, UniProt P25103); experiment: Competitive radioligand binding assay, hNK1-CHO cell homogenates, [3H]-(Sar9,Met(O2)11)-Substance P; conditions: hNK1-CHO cell homogenates; mean of three independent experiments in duplicate unless stated; read-out: IC50 (Mean ± SD) hNK1R
T2 construct: expressed in transfected cells; host or cells: CHO-K1 (hNK1-CHO), gift from Dr. Attila Keresztes and Dr. John M. Streicher
T2 sequence (P25103 whole entry): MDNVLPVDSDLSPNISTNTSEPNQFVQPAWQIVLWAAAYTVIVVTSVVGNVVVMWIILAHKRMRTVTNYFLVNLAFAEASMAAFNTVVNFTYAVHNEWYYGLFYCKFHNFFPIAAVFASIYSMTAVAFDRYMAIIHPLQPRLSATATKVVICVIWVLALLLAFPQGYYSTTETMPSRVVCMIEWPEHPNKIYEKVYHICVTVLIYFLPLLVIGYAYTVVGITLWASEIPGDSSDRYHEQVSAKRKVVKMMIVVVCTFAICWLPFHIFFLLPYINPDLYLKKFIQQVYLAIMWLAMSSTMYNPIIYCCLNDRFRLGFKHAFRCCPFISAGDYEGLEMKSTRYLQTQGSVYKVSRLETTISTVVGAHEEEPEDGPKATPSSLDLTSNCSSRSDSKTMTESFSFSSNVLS
Protocol: The CHO-K1 cells with a stable overexpression of the human NK1 receptor, denoted further on as hNK1-CHO cells, were obtained as a gift from Dr. Attila Keresztes and Dr. John M. Streicher. The cells were maintained in a humidified atmosphere with 5% CO2 at 37 °C, in Ham’s F12 medium (Corning, Corning, NY, USA) supplemented with 10% Foetal Bovine Serum (CytoGen, Wetzlar, Germany) and 400 μg/mL G418 (Corning, Corning, NY, USA).
When the cells reached approximately 90% confluence, they were harvested by treatment with 0.05% trypsin/EDTA (Corning, Corning, NY, USA). After centrifugation at 1500 rpm for 5 min, the cells were homogenized in a glass tissue homogenizer in ice-cold 50 mM Tris-HCl buffer (pH 7.4) with 5 mM MnCl2. The preparation was collected by centrifugation at 13,000 rpm for 25 min at 4 °C, and then the pellet was suspended in 50 mM Tris-HCl buffer. The homogenates were stored at −80 °C for later use. The BCA assay (Thermo Scientific, Waltham, MA, USA) was used to determine the protein concentration in the homogenates.
as §1, §2

T1 sequence (P14600 whole entry): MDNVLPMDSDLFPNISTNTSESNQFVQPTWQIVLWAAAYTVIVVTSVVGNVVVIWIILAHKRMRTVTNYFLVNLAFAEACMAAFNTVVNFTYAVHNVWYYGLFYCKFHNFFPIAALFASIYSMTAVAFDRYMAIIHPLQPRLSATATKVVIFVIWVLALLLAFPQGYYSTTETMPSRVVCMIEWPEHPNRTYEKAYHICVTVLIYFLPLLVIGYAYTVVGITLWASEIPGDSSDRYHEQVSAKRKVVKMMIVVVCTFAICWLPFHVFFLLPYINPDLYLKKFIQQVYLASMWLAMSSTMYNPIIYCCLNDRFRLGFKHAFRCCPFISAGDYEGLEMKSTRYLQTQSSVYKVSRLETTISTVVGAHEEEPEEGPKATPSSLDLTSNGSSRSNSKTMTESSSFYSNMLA

IC50 [1] [nM] | IC50 [2] [nM] | SMILES | IC50 (Mean ± SD) rNK1R [1]
572 ± 41 | 20.4 ± 10.2 | NCCCCCC(=O)NCCCCCC(=O)N[C@@H](Cc1c[nH]c2ccccc12)C(=O)OCc1cc(C(F)(F)F)cc(C(F)(F)F)c1.O=C(O)C(F)(F)F [Compound 5b, (S)-6-((6-((1-((3,5-bis(trifluoromethyl)benzyl)oxy)-3-(1H-indol-3-yl)-1-oxopropan-2-yl)amino)-6-oxohexyl)amino)-6-oxohexan-1-aminium 2,2,2-trifluoroacetate] | submicromolar
1400 ± 319 | 35.4 ± 23.6 | NCCCCCC(=O)N[C@@H](Cc1c[nH]c2ccccc12)C(=O)OCc1cc(C(F)(F)F)cc(C(F)(F)F)c1 [Compound 4b, (S)-6-((1-((3,5-bis(trifluoromethyl)benzyl)oxy)-3-(1H-indol-3-yl)-1-oxopropan-2-yl)amino)-6-oxohexan-1-aminium 2,2,2-trifluoroacetate] | –
1950 ± 641 | 83.1 ± 69.3 | CC(=O)NCCCCCC(=O)N[C@@H](Cc1c[nH]c2ccccc12)C(=O)OCc1cc(C(F)(F)F)cc(C(F)(F)F)c1 [Compound 4c, 3,5-bis(trifluoromethyl)benzyl (6-acetamidohexanoyl)-L-tryptophanate] | –
– | 8.7 ± 3.2 | O=C(O)CN1CCN(CC(=O)O)CCN(CC(=O)NCCCCCC(=O)N[C@@H](Cc2c[nH]c3ccccc23)C(=O)OCc2cc(C(F)(F)F)cc(C(F)(F)F)c2)CCN(CC(=O)O)CC1 [Compound 4d] | –

The next lines start with the compound.

SMILES | IC50 [1] [nM] | IC50 [2] [nM] | IC50 (Mean ± SD) rNK1R [1]
C[C@@H](NC(=O)OC(C)(C)C)C(=O)N[C@H](C)C(=O)N[C@@H](Cc1c[nH]c2ccccc12)C(=O)OCc1cc(C(F)(F)F)cc(C(F)(F)F)c1 [Compound 3a, 3,5-bis(trifluoromethyl)benzyl (tert-butoxycarbonyl)-D-alanyl-D-alanyl-L-tryptophanate] | 745 ± 311 | 13.9 ± 11.2 | submicromolar
O=C(O)CN1CCN(CC(=O)O)CCN(CC(=O)N[C@@H](Cc2c[nH]c3ccccc23)C(=O)OCc2cc(C(F)(F)F)cc(C(F)(F)F)c2)CCN(CC(=O)O)CC1 [Ga-1d] | 112 ± 3 | 5.1 ± 2 | –
CC(=O)N[C@H](C)C(=O)N[C@@H](Cc1c[nH]c2ccccc12)C(=O)OCc1cc(C(F)(F)F)cc(C(F)(F)F)c1 [Compound 2c, 3,5-bis(trifluoromethyl)benzyl acetyl-D-alanyl-L-tryptophanate] | 2280 ± 703 | 25.3 ± 0.4 | –
C[C@@H](NC(=O)OC(C)(C)C)C(=O)N[C@@H](Cc1c[nH]c2ccccc12)C(=O)OCc1cc(C(F)(F)F)cc(C(F)(F)F)c1 [Compound 2a, 3,5-bis(trifluoromethyl)benzyl (tert-butoxycarbonyl)-D-alanyl-L-tryptophanate] | 1530 ± 279 | 135 ± 108 | –
C[C@@H](N)C(=O)N[C@H](C)C(=O)N[C@@H](Cc1c[nH]c2ccccc12)C(=O)OCc1cc(C(F)(F)F)cc(C(F)(F)F)c1 [Compound 3b, (R)-1-(((R)-1-(((S)-1-((3,5-bis(trifluoromethyl)benzyl)oxy)-3-(1H-indol-3-yl)-1-oxopropan-2-yl)amino)-1-oxopropan-2-yl)amino)-1-oxopropan-2-aminium 2,2,2-trifluoroacetate] | 4010 ± 1370 | 80.8 ± 59.7 | –
CC(C)(C)OC(=O)NCCCCCC(=O)N[C@@H](Cc1c[nH]c2ccccc12)C(=O)OCc1cc(C(F)(F)F)cc(C(F)(F)F)c1 [Compound 4a, 3,5-bis(trifluoromethyl)benzyl (6-((tert-butoxycarbonyl)amino)hexanoyl)-L-tryptophanate] | 1660 ± 1050 | 60.7 ± 31.9 | –
CC(C)(C)OC(=O)NCCCCCC(=O)NCCCCCC(=O)N[C@@H](Cc1c[nH]c2ccccc12)C(=O)OCc1cc(C(F)(F)F)cc(C(F)(F)F)c1 [Compound 5a, 3,5-bis(trifluoromethyl)benzyl (6-(6-((tert-butoxycarbonyl)amino)hexanamido)hexanoyl)-L-tryptophanate] | 762 ± 295 | 4.5 ± 2.8 | submicromolar
